Experimental data from ChEMBL document CHEMBL1201862, “PubChem BioAssay data set” (2004).
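These data come from cells grown in 96-well plates and exposed to compound for 48 hours at five concentrations. Here, GI50 denotes the concentration required for 50% inhibition of growth.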 The source made the active and inactive calls. No stated cut-off is given here; in the data, active = GI50 up to about 1.1 µM and inactive = higher. Starred links: 1 amine or outer side, 2 acyl side, 3 side chain; linkers in the order of their positions; H or OH if unused. Positions of bridges follow the written chain, without caps; N, C: chain ends. Non-standard residues stand in square brackets, D forms with d. Residues, ends and D or L forms follow the SMILES beside them. Chains are numbered I, II in the order given. ξ: configuration not given here. X42 = N=C(N)NCCC[C@H](NC(=N)CCCCCCC(=N)N[C@@H](CCCNC(=N)N)C(=O)[*:2])C(=O)[*:1]; Oic(3aξ,7aξ) = O=C(O)[C@@H]1CC2CCCCC2N1; Igl = N[C@H](C(=O)O)C1Cc2ccccc2C1; Hyp = O=C(O)[C@@H]1C[C@@H](O)CN1

Columns and labels:
Experiment in all cases: inhibition of tumour cell growth, NCI panel, 48 h
BT-549 = tested on: BT-549
CAKI-1 = tested on: CAKI-1
COLO 205 = tested on: COLO 205
EKVX = tested on: EKVX
HCC 2998 = tested on: HCC 2998
HCT-15 = tested on: HCT-15
KM12 = tested on: KM12
LOX IMVI = tested on: LOX IMVI
MCF7 = tested on: MCF7
MDA-MB-231 = tested on: MDA-MB-231
MOLT-4 = tested on: MOLT-4
NCI-H460 = tested on: NCI-H460
OVCAR-4 = tested on: OVCAR-4
SK-MEL-28 = tested on: SK-MEL-28
T47D = tested on: T47D
U-251 = tested on: U-251
UACC-257 = tested on: UACC-257
Hs-578T = tested on: Hs-578T
SW-620 = tested on: SW-620

| Compound | GI50 (BT-549) | GI50 (CAKI-1) | GI50 (COLO 205) | GI50 (EKVX) | GI50 (HCC 2998) | GI50 (HCT-15) [µM] | GI50 (KM12) | GI50 (LOX IMVI) | GI50 (MCF7) | GI50 (MDA-MB-231) | GI50 (MOLT-4) | GI50 (NCI-H460) | GI50 (OVCAR-4) | GI50 (SK-MEL-28) | GI50 (T47D) | GI50 (U-251) | GI50 (UACC-257) | GI50 (Hs-578T) | GI50 (SW-620) |
| --- | --- | --- | --- | --- | --- | --- | --- | --- | --- | --- | --- | --- | --- | --- | --- | --- | --- | --- | --- |
| CCOP(=O)(OCC)C(Nc1cccc([N+](=O)[O-])c1)c1ccccc1 (configuration not stated) | > 100 µM (inactive) | > 100 µM (inactive) | 34.6 µM (inactive) | 62.2 µM (inactive) | > 100 µM (inactive) | 71.6 | > 100 µM (inactive) | 73.3 µM (inactive) | > 100 µM (inactive) | 58.9 µM (inactive) | 39.4 µM (inactive) | 80 µM (inactive) | > 100 µM (inactive) | > 100 µM (inactive) | 18.8 µM (inactive) | > 100 µM (inactive) | 72.1 µM (inactive) |  |  |
| O=[N+]([O-])C(/C=C(\Cl)n1nnc2ccccc21)=C(/Cl)n1nnc2ccccc21 |  | > 100 µM (inactive) | > 100 µM (inactive) | > 100 µM (inactive) | > 100 µM (inactive) | > 100 | > 100 µM (inactive) | > 100 µM (inactive) |  | > 100 µM (inactive) | > 100 µM (inactive) | > 100 µM (inactive) | > 100 µM (inactive) | > 100 µM (inactive) | > 100 µM (inactive) | > 100 µM (inactive) | > 100 µM (inactive) | > 100 µM (inactive) |  |
| Cc1cc2c(O)c(c1)COCc1cc(C)cc(c1O)COCc1cc(C)cc(c1O)COC2 | > 100 µM (inactive) | > 100 µM (inactive) | 96.2 µM (inactive) | > 100 µM (inactive) | > 100 µM (inactive) | > 100 | > 100 µM (inactive) |  | > 100 µM (inactive) | 72.8 µM (inactive) | > 100 µM (inactive) | 92 µM (inactive) | > 100 µM (inactive) | > 100 µM (inactive) | > 100 µM (inactive) | > 100 µM (inactive) | > 100 µM (inactive) |  | > 100 µM (inactive) |
| CC(=O)O[C@@H]1C(=O)N(c2ccccc2)[C@@H]1c1cc2ccccc2c2ccccc12 |  | 5.25 µM (inactive) | 16.7 µM (inactive) | 40.6 µM (inactive) | 25.7 µM (inactive) | 33.1 | 20.3 µM (inactive) | 20 µM (inactive) | 34.2 µM (inactive) | 20.3 µM (inactive) | 12.3 µM (inactive) | 31.4 µM (inactive) | 20.5 µM (inactive) | 56 µM (inactive) | 18.7 µM (inactive) | 43.1 µM (inactive) | 25.5 µM (inactive) | 27.7 µM (inactive) |  |
| CCOC(=O)C1=C(Nc2cccc3ccccc23)OCC1=O |  | > 100 µM (inactive) | > 100 µM (inactive) | > 100 µM (inactive) | > 100 µM (inactive) |  | > 100 µM (inactive) |  |  |  | > 100 µM (inactive) | > 100 µM (inactive) | > 100 µM (inactive) | 43.5 µM (inactive) |  | > 100 µM (inactive) | > 100 µM (inactive) |  | > 100 µM (inactive) |
| Cc1ccc(S(=O)(=O)OCCC2CN(C(=O)OCc3ccccc3)C(C)(C)O2)cc1 (configuration not stated) | 1.89 µM (inactive) | 60.1 µM (inactive) | 7.38 µM (inactive) | 18.3 µM (inactive) | 6.07 µM (inactive) | 3.66 | 2.75 µM (inactive) | 10.8 µM (inactive) | 7.83 µM (inactive) | > 100 µM (inactive) | 2.81 µM (inactive) | 3.47 µM (inactive) | 6.68 µM (inactive) | 11.4 µM (inactive) |  | 16.7 µM (inactive) | 7.41 µM (inactive) |  | 14.3 µM (inactive) |
| COc1cc(CNC(=S)CCCCCCCCCCC(C)C)ccc1O |  |  | 70.6 µM (inactive) | 62.8 µM (inactive) | 63.1 µM (inactive) | 63 | 28.4 µM (inactive) | 41.9 µM (inactive) | 41.5 µM (inactive) | > 100 µM (inactive) | 5.92 µM (inactive) | 42.9 µM (inactive) | 53.6 µM (inactive) | > 100 µM (inactive) | 27 µM (inactive) | 72.1 µM (inactive) | 38.5 µM (inactive) | 22.2 µM (inactive) | > 100 µM (inactive) |
| COC(=O)c1c(O)ccc2c1c1cc3ccccc3cc1n2Cc1cc(OC)cc(OC)c1 |  | 2.18 µM (inactive) | 10.1 µM (inactive) | 6.3 µM (inactive) | 3.88 µM (inactive) | 1.46 | 0.805 µM (active) | 9.31 µM (inactive) | 1.73 µM (inactive) | 6.55 µM (inactive) | 21.7 µM (inactive) | 2.57 µM (inactive) | 9.84 µM (inactive) | 1.66 µM (inactive) | 3.06 µM (inactive) | 4.45 µM (inactive) | 9.73 µM (inactive) | 2.45 µM (inactive) | 3.61 µM (inactive) |
| CCCCc1c(C(=O)OC(C)(C)C)cc(C#Cc2cc(C(=O)OC(C)(C)C)c(CCCC)c(C(=O)OC(C)(C)C)c2)cc1C(=O)OC(C)(C)C | > 100 µM (inactive) | > 100 µM (inactive) | > 100 µM (inactive) | > 100 µM (inactive) | > 100 µM (inactive) | > 100 | > 100 µM (inactive) |  | > 100 µM (inactive) | > 100 µM (inactive) |  | > 100 µM (inactive) | > 100 µM (inactive) | > 100 µM (inactive) | > 100 µM (inactive) | > 100 µM (inactive) | > 100 µM (inactive) |  |  |
| Nc1cccc2c1C(=O)c1cccc(N)c1C2=O |  | > 100 µM (inactive) | > 100 µM (inactive) | > 100 µM (inactive) | > 100 µM (inactive) | > 100 | > 100 µM (inactive) | > 100 µM (inactive) |  |  | > 100 µM (inactive) | > 100 µM (inactive) | > 100 µM (inactive) | > 100 µM (inactive) |  | > 100 µM (inactive) | > 100 µM (inactive) |  | > 100 µM (inactive) |
| N=C(N)NCCC[C@H](NC(=O)[C@@H]1CC2CCCCC2N1C(=O)[C@@H](NC(=O)[C@H](CO)NC(=O)[C@@H](NC(=O)CNC(=O)[C@@H]1CCCN1C(=O)[C@H](CCCNC(=N)N)NC(=O)[C@H](CCCNC(=N)N)NC(=N)CCCCCCC(=N)N[C@@H](CCCNC(=N)N)C(=O)N[C@@H](CCCNC(=N)N)C(=O)N1CCC[C@H]1C(=O)N1C[C@H](O)C[C@H]1C(=O)NCC(=O)N[C@H](C(=O)N[C@@H](CO)C(=O)N[C@H](C(=O)N1C2CCCCC2C[C@H]1C(=O)N[C@@H](CCCNC(=N)N)C(=O)O)C1Cc2ccccc2C1)C1Cc2ccccc2C1)C1Cc2ccccc2C1)C1Cc2ccccc2C1)C(=O)O (some centres not stated) (I: RP[Hyp]G[Igl]S[Igl][Oic(3aξ,7aξ)]R-OH / II: RPG[Igl]S[Igl][Oic(3aξ,7aξ)]R-OH; linker I:N-II:N via X42) |  | 2.1 µM (inactive) | 1.69 µM (inactive) | 2.03 µM (inactive) |  | 2.22 | 2.07 µM (inactive) | 2.24 µM (inactive) | 1.99 µM (inactive) | 1.69 µM (inactive) | 0.413 µM (active) | 1.91 µM (inactive) | 2.73 µM (inactive) | 2.01 µM (inactive) | 2.19 µM (inactive) | 2.48 µM (inactive) | 4.15 µM (inactive) | 2.91 µM (inactive) | 2.28 µM (inactive) |
